From US9072703B2 (Ipsen Pharma S.A.S., priority 2008, dated 2015)
Non-standard residues stand in square brackets, D forms with d. Residues, ends and D or L forms follow the SMILES beside them. No end group written: not given here. *: point of attachment. Myristoyl = CCCCCCCCCCCCCC(=O)*; 12Ado = NCCCCCCCCCCCC(=O)O; Ac6c = NC1(C(=O)O)CCCCC1; Nle = CCCC[C@H](N)C(=O)O; Orn = NCCC[C@H](N)C(=O)O; Ac5c = NC1(C(=O)O)CCCC1; Aib = CC(C)(N)C(=O)O

Assays:
[1] = Human plasma half-life assay; type: in vitro ADME; conditions: 37° C., LC-MS, read-out: Human Plasma T½ (converted)
Protocol: (§1) B. Human and Rat Plasma Half-Life Assay
(§2) 50 μL was removed at various times, like at 0, 1, 2, 3, 4, 8, 24, 32, 48, 56, 72 hours, mixed with 5 μL formic acid and 150 μL acetonitrile in a microcentrifuge tube, vertexed, and centrifuged for 10 minutes at 10K rpm. The supernatant was transferred to an injection vial and analyzed by LC-MS. The LC-MS system consisted of an API4000 mass spectrometer with an ESI probe. Positive ion mode and full scan detection were used. HPLC separation was carried out on a Luna 3μ C8 (2), 2×30 mm column with a gradient from 90% A to 90% B in 10 minutes at a flow rate of 0.3 ml/min. Buffer A was 1% formic acid in water and buffer B was 1% formic acid acetonitrile.

[2] = Rat plasma half-life assay; type: in vitro ADME; conditions: 37° C., LC-MS, read-out: Rat Plasma T½ (converted)
Protocol: as §1, §2

Compound	half-life at 0.1 mg/ml [1]	half-life at 0.1 mg/ml [2]
YAEGTF[Ac6c]SDYSIA[Nle]DKIHQQDFVNWLLAQKGKKNDWKHNI[Ac6c]Q-OH [Example 17, (A6c^7, 41, Nle^14)hGIP(1-42)-OH]	6.3 h	1.9 h
CCCC[C@H](NC(=O)[C@H](C)NC(=O)[C@@H](NC(=O)C1(NC(=O)[C@H](Cc2ccc(O)cc2)NC(=O)[C@H](CC(=O)O)NC(=O)[C@H](CO)NC(=O)[C@@H](NC(=O)[C@H](Cc2ccccc2)NC(=O)[C@@H](NC(=O)CNC(=O)[C@H](CCC(=O)O)NC(=O)[C@H](C)NC(=O)[C@@H](N)Cc2ccc(O)cc2)[C@@H](C)O)[C@@H](C)CC)CCCC1)[C@@H](C)CC)C(=O)N[C@@H](CC(=O)O)C(=O)N[C@@H](CCCCN)C(=O)N[C@H](C(=O)N[C@@H](Cc1c[nH]cn1)C(=O)N[C@@H](CCC(N)=O)C(=O)N[C@@H](CCC(N)=O)C(=O)N[C@@H](CC(=O)O)C(=O)N[C@@H](Cc1ccccc1)C(=O)N[C@H](C(=O)N[C@@H](CC(N)=O)C(=O)N[C@@H](Cc1c[nH]c2ccccc12)C(=O)N[C@@H](CC(C)C)C(=O)N[C@@H](CC(C)C)C(=O)N[C@@H](C)C(=O)N[C@@H](CCC(N)=O)C(=O)N[C@@H](CCCCN)C(=O)NCC(=O)N[C@@H](CCCCN)C(=O)N[C@@H](CCCCN)C(=O)N[C@@H](CC(N)=O)C(=O)N[C@@H](CC(=O)O)C(=O)N[C@@H](Cc1c[nH]c2ccccc12)C(=O)N[C@@H](CCCCN)C(=O)N[C@@H](Cc1c[nH]cn1)C(=O)N[C@@H](CC(N)=O)C(=O)N[C@H](C(=O)N[C@H](C(=O)N[C@@H](CCC(N)=O)C(=O)N[C@@H](Cc1c[nH]cn1)C(=O)O)[C@@H](C)O)[C@@H](C)CC)C(C)C)[C@@H](C)CC [Example 21, (A5c^11, Nle^14, His^43)hGIP(1-43)-OH]	11.1 h	2.8 h
CCCCCCCCCCCCCCCC(=O)NCCC[C@H](NC(=O)CNC(=O)[C@H](CCCCN)NC(=O)[C@H](CCC(N)=O)NC(=O)[C@H](C)NC(=O)[C@H](CC(C)C)NC(=O)[C@H](CC(C)C)NC(=O)[C@H](Cc1c[nH]c2ccccc12)NC(=O)[C@H](CC(N)=O)NC(=O)[C@@H](NC(=O)[C@H](Cc1ccccc1)NC(=O)[C@H](CC(=O)O)NC(=O)[C@H](CCC(N)=O)NC(=O)[C@H](CCC(N)=O)NC(=O)[C@H](Cc1c[nH]cn1)NC(=O)[C@@H](NC(=O)[C@H](CCCCN)NC(=O)[C@H](CC(=O)O)NC(=O)[C@H](CCSC)NC(=O)[C@H](C)NC(=O)[C@@H](NC(=O)C1(NC(=O)[C@H](Cc2ccc(O)cc2)NC(=O)[C@H](CC(=O)O)NC(=O)[C@H](CO)NC(=O)[C@@H](NC(=O)[C@H](Cc2ccccc2)NC(=O)[C@@H](NC(=O)CNC(=O)[C@H](CCC(=O)O)NC(=O)[C@H](C)NC(=O)[C@@H](N)Cc2ccc(O)cc2)[C@@H](C)O)[C@@H](C)CC)CCCC1)[C@@H](C)CC)[C@@H](C)CC)C(C)C)C(=O)N[C@@H](CCCCN)C(=O)N[C@@H](CC(N)=O)C(=O)N[C@@H](CC(=O)O)C(=O)N[C@@H](Cc1c[nH]c2ccccc12)C(=O)N[C@@H](CCCCN)C(=O)N[C@@H](Cc1c[nH]cn1)C(=O)N[C@@H](CC(N)=O)C(=O)N[C@H](C(=O)N[C@H](C(=O)N[C@@H](CCC(N)=O)C(=O)N[C@@H](Cc1c[nH]cn1)C(=O)O)[C@@H](C)O)[C@@H](C)CC [Example 41, [A5c^11, Orn^32(N—C(O)—(CH2)14—CH3), His^43]hGIP(1-43)-OH]	6.6 h	22.9 h
YAEGTFISDY[Ac5c]IAMDKIHQQDFVNWLLAQKGKKNDWKHNITQ[12Ado]-OH [Example 13, (A5c^11, Ado^43)hGIP(1-43)-OH]	13.1 h	18.8 h
CCCCCCCCCCCCCCCC(=O)NCCC[C@H](NC(=O)[C@H](CCCCN)NC(=O)CNC(=O)[C@H](CCCCN)NC(=O)[C@H](CCC(N)=O)NC(=O)[C@H](C)NC(=O)[C@H](CC(C)C)NC(=O)[C@H](CC(C)C)NC(=O)[C@H](Cc1c[nH]c2ccccc12)NC(=O)[C@H](CC(N)=O)NC(=O)[C@@H](NC(=O)[C@H](Cc1ccccc1)NC(=O)[C@H](CC(=O)O)NC(=O)[C@H](CCC(N)=O)NC(=O)[C@H](CCC(N)=O)NC(=O)[C@H](Cc1c[nH]cn1)NC(=O)[C@@H](NC(=O)[C@H](CCCCN)NC(=O)[C@H](CC(=O)O)NC(=O)[C@H](CCSC)NC(=O)[C@H](C)NC(=O)[C@@H](NC(=O)C1(NC(=O)[C@H](Cc2ccc(O)cc2)NC(=O)[C@H](CC(=O)O)NC(=O)[C@H](CO)NC(=O)[C@@H](NC(=O)[C@H](Cc2ccccc2)NC(=O)[C@@H](NC(=O)CNC(=O)[C@H](CCC(=O)O)NC(=O)[C@H](C)NC(=O)[C@@H](N)Cc2ccc(O)cc2)[C@@H](C)O)[C@@H](C)CC)CCCC1)[C@@H](C)CC)[C@@H](C)CC)C(C)C)C(=O)N[C@@H](CC(N)=O)C(=O)N[C@@H](CC(=O)O)C(=O)N[C@@H](Cc1c[nH]c2ccccc12)C(=O)N[C@@H](CCCCN)C(=O)N[C@@H](Cc1c[nH]cn1)C(=O)N[C@@H](CC(N)=O)C(=O)N[C@H](C(=O)N[C@H](C(=O)N[C@@H](CCC(N)=O)C(=O)N[C@@H](Cc1c[nH]cn1)C(=O)O)[C@@H](C)O)[C@@H](C)CC [Example 42, [A5c^11, Orn^33(N—C(O)—(CH2)14—CH3), His^43]hGIP(1-43)-OH]	6.3 h	28.3 h
YAEGTFISDY[Ac5c]IAMDKIHQQDFVNWLLAQKGKKNDWKHNITQT-OH [Example 10, (A5c^11, Thr^43)hGIP(1-43)-OH]	7.9 h	2.1 h
YAEGTFISDYSI[Aib][Nle]DKIHQQDFVNWLLAQKGKKNDWKHNITQF-OH [Example 9, (Aib^13, Nle^14, Phe^43)hGIP(1-43)-OH]	6.9 h	1.3 h
CC[C@H](C)[C@H](NC(=O)[C@H](CCCCN)NC(=O)[C@H](CC(=O)O)NC(=O)[C@H](CCSC)NC(=O)[C@H](C)NC(=O)[C@@H](NC(=O)C1(NC(=O)[C@H](Cc2ccc(O)cc2)NC(=O)[C@H](CC(=O)O)NC(=O)[C@H](CO)NC(=O)[C@@H](NC(=O)[C@H](Cc2ccccc2)NC(=O)[C@@H](NC(=O)CNC(=O)[C@H](CCC(=O)O)NC(=O)[C@H](C)NC(=O)[C@@H](N)Cc2ccc(O)cc2)[C@@H](C)O)[C@@H](C)CC)CCCC1)[C@@H](C)CC)C(=O)N[C@@H](Cc1c[nH]cn1)C(=O)N[C@@H](CCC(N)=O)C(=O)N[C@@H](CCC(N)=O)C(=O)N[C@@H](CC(=O)O)C(=O)N[C@@H](Cc1ccccc1)C(=O)N[C@H](C(=O)N[C@@H](CC(N)=O)C(=O)N[C@@H](Cc1c[nH]c2ccccc12)C(=O)N[C@@H](CC(C)C)C(=O)N[C@@H](CC(C)C)C(=O)N[C@@H](C)C(=O)N[C@@H](CCC(N)=O)C(=O)N[C@@H](CCCCN)C(=O)N[C@@H](Cc1c[nH]cn1)C(N)=O)C(C)C [Example 29, (A5c^11, His^31)hGIP(1-31)-NH2] (H-YAEGTFISDY[Ac5c]IAMDKIHQQDFVNWLLAQKH-NH2; N-terminus assumed)	7.2 h	7.5 h
YAEGTF[Ac6c]SDYSIAMDKIHQQDFVNWLLAQKGKKNDWKHNI[Ac6c]Q-OH [Example 16, (A6c^7, 41)hGIP(1-42)-OH]	6.5 h	1.3 h
CCCCCCCCCCCCCCCC(=O)NCCCC[C@H](NC(=O)[C@H](CCC(N)=O)NC(=O)[C@@H](NC(=O)[C@@H](NC(=O)[C@H](CC(N)=O)NC(=O)[C@H](Cc1c[nH]cn1)NC(=O)[C@H](CCCCN)NC(=O)[C@H](Cc1c[nH]c2ccccc12)NC(=O)[C@H](CC(=O)O)NC(=O)[C@H](CC(N)=O)NC(=O)[C@H](CCCCN)NC(=O)[C@H](CCCCN)NC(=O)CNC(=O)[C@H](CCCCN)NC(=O)[C@H](CCC(N)=O)NC(=O)[C@H](C)NC(=O)[C@H](CC(C)C)NC(=O)[C@H](CC(C)C)NC(=O)[C@H](Cc1c[nH]c2ccccc12)NC(=O)[C@H](CC(N)=O)NC(=O)[C@@H](NC(=O)[C@H](Cc1ccccc1)NC(=O)[C@H](CC(=O)O)NC(=O)[C@H](CCC(N)=O)NC(=O)[C@H](CCC(N)=O)NC(=O)[C@H](Cc1c[nH]cn1)NC(=O)[C@@H](NC(=O)[C@H](CCCCN)NC(=O)[C@H](CC(=O)O)NC(=O)[C@H](CCSC)NC(=O)[C@H](C)NC(=O)[C@@H](NC(=O)C1(NC(=O)[C@H](Cc2ccc(O)cc2)NC(=O)[C@H](CC(=O)O)NC(=O)[C@H](CO)NC(=O)[C@@H](NC(=O)[C@H](Cc2ccccc2)NC(=O)[C@@H](NC(=O)CNC(=O)[C@H](CCC(=O)O)NC(=O)[C@H](C)NC(=O)[C@@H](N)Cc2ccc(O)cc2)[C@@H](C)O)[C@@H](C)CC)CCCC1)[C@@H](C)CC)[C@@H](C)CC)C(C)C)[C@@H](C)CC)[C@@H](C)O)C(=O)O [Example 40, [A5c^11, Lys^43(N—C(O)—(CH2)14—CH3)]hGIP(1-43)-OH]	17.2 h	19.3 h
YAEGTFISDY[Ac5c]IAMDKIHQQDFVNWLLAQKGKKNDWKHNI[Ac5c]QC-NH2 [Example 33, (A5c^11, 41, Cys^43)hGIP(1-43)-NH2]	15.8 h	6.5 h
YAEGTFISDY[Ac6c]IA[Ac6c]DKIHQQDFVNWLLAQKGKKNDWKHN[Ac6c]TQ-OH [Example 14, (A6c^11, 14, 40)hGIP(1-42)-OH]	11.6 h	4.8 h
H-YAEGTF[Ac6c]SDYSIAMDKIHQQDFVNWLLAQKGKKN[Orn](Myristoyl)WKHNITQ-OH [Example 18, [A6c^7, Orn^35(N—C(O)—(CH2)12—CH3)]hGIP(1-42)-OH]	7.3 h	16.7 h
